Results taken from patent US20130030055A1, “COMPOSITIONS AND METHODS FOR TREATING HAIR LOSS, HAIR THINNING, AND HAIR COLOR LOSS” (priority 2010, published 2013).

Columns and labels:
Format in all cases: in vivo, human
[1] = Open-label study: intraocular pressure measurements
From the text: Subjects were instructed to apply bimatoprost 0.03% to the eyelid lash line once daily for 12 weeks using an applicator (Studio Basics Professional Tools Eye Applicators, Paris Presents Incorporated, Gumee, Ill.) for each upper eyelid each evening and, if necessary, to wipe the areas immediately around the eyelid afterward to remove excess medication. Periodic use of artificial tears was allowed, but only prior to administration of bimatoprost 0.03%.
Clinical Examinations. Assessments were conducted at baseline and at weekly study visits at weeks 1, 4, 8, 12 (end of treatment period), and 16 (post-treatment follow-up period). At each visit, subjects underwent a complete eye examination by an ophthalmologist that included intraocular pressure measurements, visual acuity, and biomicroscopy. Subjects were queried at each visit for adverse events and these were recorded by the investigator. The presence of periorbital darkening was noted and graded on a scale of 0 to 4, and adverse event data were collected at each visit during the treatment period.
Statistical Analyses. A 2-sided paired t-test was used to evaluate the intraocular pressure change from baseline, and the GEA change from week 1 to week 12 was compared using a Wilcoxon signed-rank test. Analysis of intraocular pressure was performed on a per-eye and per-subject basis. A significance level of 0.05 was used for all statistical tests. Categorical variables were summarized with frequency, count, and percentages.

eyelashes = experiment: Randomized vehicle-controlled study: overall eyelash prominence by GEA scale; settings: week 16; ITT; 0.03% solution once daily to upper eyelid margins (107/137); p<0.0001 vs vehicle
Protocol: The objective of this study was to evaluate the safety and efficacy of bimatoprost 0.03% solution once daily compared with vehicle in increasing overall eyelash prominence following dermal administration to the upper eyelid margins.
During the screening visit, each subject was assessed for inclusion/exclusion criteria. Qualifying subjects were randomly allocated in a 1:1 ratio to treatment with bimatoprost 0.03% solution or vehicle, to be applied to both upper eyelid margins once daily in the evening for 4 months.
Subjects applied study medication to the upper eyelid margins using the supplied, disposable, single-use-per-eye applicator once daily in the evening for 4 months. Subjects were instructed to dab or blot any excess study medication runoff on the area outside the upper eyelash margin with a tissue or other absorbent cloth; the upper lid margin was to feel evenly and lightly moist without runoff. Subjects were instructed not to apply study medication to the lower eyelash line. […]
For the primary efficacy endpoint, a clinical response was defined as at least a 1-grade increase in the GEA score from baseline at month 4 (week 16). […] The proportion of subjects with at least a 1-grade increase from baseline was summarized by a frequency table and analyzed by the Pearson's chi-square test for 2-by-2 tables at each visit. […]

eyebrows = experiment: Eyebrow growth after chemotherapy-induced eyebrow loss (Example 3); settings: person, eyebrows lost after chemotherapy
From the text: A person participates in a clinical study for eyebrow growth. The patient has lost both their eyebrows as a result of recent treatments of chemotherapy. Bimatoprost 0.03% is applied along the eyebrow line of both eyes. After approximately 4 weeks, the person begins to experience eyebrow growth. […] The person is extremely satisfied with the results and no longer needs to apply make-up in place of real eyebrows.

[2] = Randomized vehicle-controlled study: intraocular pressure; settings: eye as sampling unit
Protocol: Safety measurements collected during this study included adverse events, ophthalmic examination variables (iris color, IOP, visual acuity, biomicroscopy, and ophthalmoscopy), physical examination, vital signs, and pregnancy testing.
Iris color was recorded for each subject at every study visit. Iris color was grouped as light (blue, blue-gray, blue/gray-brown, green, green-brown, hazel, and other) and dark (brown and dark brown). If the “other” category contained black in the description, it was grouped as dark. IOP (measured at approximately the same time of day at each visit), visual acuity, and biomicroscopy data were collected at screening, week 1, and months 1, 2, 3, 4, and 5. Ophthalmoscopy (dilated) was performed at screening and month 4.
IOP measurements were collected twice for each eye. If the 2 measurements differed by more than 2 mmHg, a third measurement was taken on that eye. If 2 measurements were collected, the average of the 2 was recorded as the IOP for a particular eye; if a third measurement was collected, the median measurement was recorded as the IOP for that eye. As all subjects were treated bilaterally, the average of the subject's right and left eye IOP values was analyzed for each time point. In the case where data were collected for only 1 eye, the collected data served as the IOP for the subject at that time point. […] Within-group changes from baseline were analyzed by the paired t-test. All analyses were based on observed cases and no data imputations were performed.
All adverse events were summarized and analyzed by the following subgroups: age (<45, 45 to 65, and >65 years), gender, and race (Caucasian and non-Caucasian). This was performed for both the treatment and posttreatment periods. Analyses of IOP were stratified by 3 subgroups, according to baseline IOP (8 to 12 mm Hg, >12 to 15 mm Hg, and >15 mm Hg). These ranges were determined by taking the bottom tercile, middle tercile, and the top tercile of baseline IOPs. The sampling unit was the “eye” (ie, each subject contributed 2 data points). Within each of the subgroups, the number and percent of subjects with an IOP of ≦6 mmHg was summarized by treatment group and visit utilizing a frequency table and was analyzed by the Pearson's chi-square test or Fisher's exact tables for 2-by-2 tables for each visit. The sampling unit was the eye and not the subject. In addition, a scatterplot of baseline IOP versus final IOP for each treatment group was presented for the treatment period and post-treatment period.

With `CCNC(=O)CCC/C=C\C[C@@H]1[C@@H](/C=C/[C@@H](O)CCc2ccccc2)[C@H](O)C[C@@H]1O` [bimatoprost] the “Mean change from baseline in intraocular pressure across all weeks (per eye)” value ([1]; bimatoprost 0.03% once daily to eyelid lash line for 12 weeks, per eye) was “+0.98 to −0.81 mm Hg”, the “Mean change from baseline in intraocular pressure across all weeks (per subject)” value ([1]; bimatoprost 0.03% once daily to eyelid lash line for 12 weeks, per subject) was “+0.98 to −0.79 mm Hg” and the “Mean change from baseline intraocular pressure at each time point” value ([1]; each time point) was “less than 1 mm Hg”. For the same compound, the “Per-eye intraocular pressure change from baseline” value ([1]; week 1, P=0.0470) was −0.81±2.72 mm Hg, the “Per-eye intraocular pressure change from baseline” value ([1]; week 4, P=0.0412) was 0.98±3.23 and the “Clinical significance of changes in intraocular pressure” value ([1]; within accepted variability of the test) was “not clinically significant”. The “Subjects with at least a 1-grade increase from baseline in overall eyelash prominence (GEA scale)” value (eyelashes) was 78.1%, the “Eyebrow outcome following the study” value (eyebrows) was “full, long eyebrows” and the “Time until eyebrow growth begins” value (eyebrows; applied along eyebrow line of both eyes) was “approximately 4 weeks”. For the same compound, the “Intraocular pressure, Max” value ([2]; Week 12) was 3.5 mmHg, the “Intraocular pressure, Median” value ([2]; Week 12) was −1.25 mmHg and the “Intraocular pressure, Min” value ([2]; Week 12) was −7.0 mmHg. For the same compound, the “Intraocular pressure, Mean” value ([2]; Week 12, N 252) was −1.54 mmHg, the “Intraocular pressure, Max” value ([2]; Week 16) was 6.0 mmHg and the “Intraocular pressure, Median” value ([2]; Week 16) was −1.50 mmHg. The “Intraocular pressure, Min” value ([2]; Week 16) was −7.5 mmHg, the “Intraocular pressure, Mean” value ([2]; Week 16, N 252) was −1.25 mmHg and the “Intraocular pressure, Max” value ([2]; Week 20 (post-treatment)) was 5.0 mmHg. For the same compound, the “Intraocular pressure, Median” value ([2]; Week 20 (post-treatment)) was −0.50 mmHg, the “Intraocular pressure, Min” value ([2]; Week 20 (post-treatment)) was −7.5 mmHg and the “Intraocular pressure, Mean” value ([2]; Week 20 (post-treatment), N 262) was −0.67 mmHg.
